The source made the active and inactive calls. The calls are words filed in the database; no cut-off is given here.
Columns and labels:
HepG2 = experiment: Cytotoxicity against human HepG2 cells assessed as reduction in cell viability at 0.01 to 1 uM incubated for 48 hrs by MTT assay; assay type: functional, cell-based; details: dose 0.01-1 µM
[1] = molecular target: T1, Programmed cell death 1 ligand 1 (Mus musculus, UniProt Q9EP73); experiment: Binding affinity to C-terminal 6His-tagged recombinant mouse PD-L1 (1 to 238 residues) expressed in HEK293 cells assessed as dissociation constant by ITC analysis
T1 sequence (Q9EP73 whole entry, the tested form may be a part): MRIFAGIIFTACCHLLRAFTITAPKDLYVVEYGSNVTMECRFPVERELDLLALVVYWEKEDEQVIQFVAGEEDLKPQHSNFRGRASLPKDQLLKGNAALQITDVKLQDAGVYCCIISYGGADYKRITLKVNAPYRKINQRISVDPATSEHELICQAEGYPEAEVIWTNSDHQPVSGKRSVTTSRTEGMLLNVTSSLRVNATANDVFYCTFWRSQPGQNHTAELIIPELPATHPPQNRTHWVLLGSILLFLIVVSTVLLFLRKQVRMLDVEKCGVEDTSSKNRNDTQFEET

[2] = molecular target: T1, Programmed cell death 1 ligand 1; experiment: Binding affinity to C-terminal 6His-tagged recombinant mouse PD-L1 (1 to 238 residues) expressed in HEK293 cells assessed as dissociation constant by SPR analysis
[3] = molecular target: Programmed cell death 1 ligand 1 (Mus musculus) (UniProt Q9EP73); experiment: Binding affinity to C-terminal 6His-tagged recombinant mouse PD-L1 (1 to 238 residues) expressed in HEK293 cells assessed as change in secondary structure conformation at 2 uM incubated for 30 mins by CD spectra analysis; assay type: cell-based
Sequence of Programmed cell death 1 ligand 1 (Mus musculus) (Q9EP73 whole entry, the tested form may be a part): as above

Jurkat [4] = experiment: Effect on HDAC6 protein level in human Jurkat T cells at 0.1 to 2 uM incubated for 12 hrs by Western blot analysis; assay type: functional, cell-based; details: dose 0.1-2 µM
[5] = molecular target: T2, Histone deacetylase 8 (Mus musculus) (UniProt Q8VH37); experiment: Inhibition of HDAC8 in mouse B16-F10 cells assessed as increase in acetylated SMC3 level incubated for 12 hrs by Western blot analysis; assay type: cell-based
T2 sequence (whole entry): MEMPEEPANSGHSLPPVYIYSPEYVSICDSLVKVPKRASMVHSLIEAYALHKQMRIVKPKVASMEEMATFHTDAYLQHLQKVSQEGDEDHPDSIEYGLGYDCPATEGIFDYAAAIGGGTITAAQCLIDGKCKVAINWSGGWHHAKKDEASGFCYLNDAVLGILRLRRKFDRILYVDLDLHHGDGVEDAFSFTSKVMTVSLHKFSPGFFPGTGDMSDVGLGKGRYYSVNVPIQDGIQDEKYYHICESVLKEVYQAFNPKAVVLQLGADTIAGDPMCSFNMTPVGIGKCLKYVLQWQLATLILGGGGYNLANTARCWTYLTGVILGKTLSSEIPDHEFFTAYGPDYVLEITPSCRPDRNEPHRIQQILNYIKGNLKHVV

Jurkat [6] = experiment: Effect on acetylated histone H3 protein level in human Jurkat T cells at 0.1 to 2 uM incubated for 12 hrs by Western blot analysis; assay type: functional, cell-based; details: dose 0.1-2 µM
B16-F10 [7] = experiment: Downregulation of p-STAT3 expression level in mouse B16-F10 cells at 0.1 to 2 uM incubated for 24 hrs by Western blot analysis; assay type: functional, cell-based; details: dose 0.1-2 µM
B16-F10 [8] = experiment: Downregulation of PD-L1 expression level in mouse B16-F10 cells at 0.1 to 2 uM incubated for 24 hrs by Western blot analysis; assay type: functional, cell-based; details: dose 0.1-2 µM
[9] = Tmax in male Sprague-Dawley rat at 2 mg/kg, iv measured after 48 hrs by triple quadrupole mass spectrometric analysis; assay type: ADME, organism-based; details: in vivo
[10] = AUC (0 to infinity) in male Sprague-Dawley rat at 10 mg/kg, po measured after 48 hrs by triple quadrupole mass spectrometric analysis; assay type: ADME, organism-based; details: in vivo
[11] = MRT (0 to t) in male Sprague-Dawley rat at 10 mg/kg, po measured after 48 hrs by triple quadrupole mass spectrometric analysis; assay type: ADME, organism-based; details: in vivo
[12] = MRT (0 to infinity) in male Sprague-Dawley rat at 10 mg/kg, po measured after 48 hrs by triple quadrupole mass spectrometric analysis; assay type: ADME, organism-based; details: in vivo
[13] = Apparent clearance during terminal phase in male Sprague-Dawley rat at 2 mg/kg, iv measured after 48 hrs by triple quadrupole mass spectrometric analysis; assay type: ADME, organism-based; details: in vivo
B16-F10 [14] = experiment: Antitumor activity against mouse B16-F10 cells implanted in C57BL/6 mouse model assessed as tumor growth inhibition at 20 mg/kg/day, ip administered for 14 days relative to control; assay type: functional; details: B16-F10, 336 h, time 14 day, read-out: TGI
[15] = Toxicity in C57BL/6 mouse model implanted with mouse B16-F10 cells assessed as body weight loss at 20 mg/kg/day, ip administered for 14 days; assay type: organism-based; details: in vivo, 336 h, time 14 day
[16] = In vivo inhibition of PD-L1 in C57BL/6 mouse model implanted with mouse B16-F10 cells assessed as reduction in PD-L1 protein expression in tumor at 20 mg/kg/day, ip co-administered with ACY-1215 for 14 days by Western blot analysis relative to control; assay type: functional; details: C57BL/6, B16-F10, 336 h, time 14 day
B16-F10 [17] = experiment: Antitumor immunity activity against mouse B16-F10 cells implanted in C57BL/6 mouse model assessed as CD3+ CD4+ T cell percentage in tumor at 20 mg/kg/day, ip administered for 14 days by flow cytometric analysis (reference value: 0.095 %); assay type: functional; details: time 14 day
B16-F10 [18] = experiment: Antitumor immunity activity against mouse B16-F10 cells implanted in C57BL/6 mouse model assessed as CD3+ CD4+ T cell percentage in tumor at 20 mg/kg/day, ip co-administered with ACY-1215 for 14 days by flow cytometric analysis (reference value: 0.095 %); assay type: functional; details: time 14 day
B16-F10 [19] = experiment: Antitumor immunity activity against mouse B16-F10 cells implanted in C57BL/6 mouse model assessed as CD3+ CD8+ T cell percentage in tumor at 20 mg/kg/day, ip administered for 14 days by flow cytometric analysis (reference value: 0.52 %); assay type: functional; details: time 14 day
[20] = Toxicity in C57BL/6 mouse model implanted with mouse B16-F10 cells assessed as morphological changes in heart at 20 mg/kg/day, ip administered for 14 days by H and E staining based analysis; assay type: organism-based; details: in vivo, 336 h, time 14 day
[21] = Toxicity in C57BL/6 mouse model implanted with mouse B16-F10 cells assessed as morphological changes in liver at 20 mg/kg/day, ip administered for 14 days by H and E staining based analysis; assay type: organism-based; details: in vivo, 336 h, time 14 day
[22] = Toxicity in C57 mouse assessed as myelosuppression by measuring WBC level at 20 mg/kg/day, IG administered for 14 days by heat map analysis; assay type: organism-based; details: in vivo, po, 336 h, time 14 day
[23] = Toxicity in C57 mouse assessed as myelosuppression by measuring hematocrit level at 20 mg/kg/day, IG administered for 14 days by heat map analysis; assay type: organism-based; details: in vivo, po, 336 h, time 14 day
[24] = Toxicity in C57 mouse assessed as myelosuppression by measuring MCV level at 20 mg/kg/day, IG administered for 14 days by heat map analysis; assay type: organism-based; details: in vivo, po, 336 h, time 14 day
[25] = Toxicity in C57 mouse assessed as myelosuppression by measuring MCHC level at 20 mg/kg/day, IG administered for 14 days by heat map analysis; assay type: organism-based; details: in vivo, po, 336 h, time 14 day
[26] = Toxicity in C57 mouse assessed as myelosuppression by measuring neutrophil level at 20 mg/kg/day, IG administered for 14 days by heat map analysis; assay type: organism-based; details: in vivo, po, 336 h, time 14 day
[27] = Toxicity in C57 mouse assessed as myelosuppression by measuring lymphocytes level at 20 mg/kg/day, IG administered for 14 days by heat map analysis; assay type: organism-based; details: in vivo, po, 336 h, time 14 day
[28] = Toxicity in C57 mouse assessed as change in UREA level at 20 mg/kg/day, IG administered for 14 days by heat map analysis; assay type: organism-based; details: in vivo, po, 336 h, time 14 day

With `COc1nc(-c2cccc(-c3ccccc3)c2C)ccc1CNCCCCCCC(=O)NO` the Activity (HepG2) was “inactive”, the Kd [1] was 73 nM and the Kd [2] was 55.3 nM. The Activity [3] was “Active”, the Activity (Jurkat [4]) was “inactive” and the inhibition [5] was “inactive”. The Activity (Jurkat [6]) was “Active; Negligible Effect Observed”, the Activity (B16-F10 [7]) was “Active” and the Activity (B16-F10 [8]) was “Active”. The Tmax [9] was 4.8 min, the AUC [10] was 1076.36 ng·h/mL and the MRT last at 48 h [11] was 15.3 h. The MRT inf [12] was 19.3 h, the CLz/F [13] was 16.2 mL/min/kg and the inhibition in vivo at 20 mg/kg/day (B16-F10 [14]) was 65.5%. The Activity [15] was “Non-toxic”, the inhibition in vivo at 20 mg/kg/day [16] was ~62% and the Activity (B16-F10 [17]) was 11.5%. For the same compound, the Activity (B16-F10 [18]) was 7.72%, the Activity (B16-F10 [19]) was 11.19% and the Activity [20] was “Non-toxic”. For the same compound, the Activity [21] was “Non-toxic”, the Activity [22] was “Non-toxic” and the Activity [23] was “Non-toxic”. For the same compound, the Activity [24] was “Non-toxic”, the Activity [25] was “Non-toxic” and the Activity [26] was “Non-toxic”. The Activity [27] was “Non-toxic” and the Activity [28] was “Non-toxic”.

Source: ChEMBL document CHEMBL6153170 (J Med Chem, 2025)
